Values of other authors, collected in patent US20070117764A1, “Compositions comprising macrolide t-cell immunomodulators or immunosuppressants in combination with antibacterials” (priority 2003, published 2007).

Tested on: allogeneic kidney transplantation
Settings: rat, oral administration, suppression of systemic immune response

C=CC[C@@H]1/C=C(\C)C[C@H](C)C[C@H](OC)[C@H]2O[C@@](O)(C(=O)C(=O)N3CCCC[C@H]3C(=O)O[C@H](/C(C)=C/[C@@H]3CC[C@@H](O)[C@H](OC)C3)[C@H](C)[C@@H](O)CC1=O)[C@H](C)C[C@@H]2OC [tacrolimus]
minimum effective dose (MED): 14 mg/kg
